Results from patent US20220193241A1, “AGENT TARGETING DOUBLE-MEMBRANE ORGANELLE DNA” (CHIBA-PREFECTURE, priority 2019, published 2022).

What was measured:
Format in all cases: cell-based
A549 cells [1] = test: Expression of inflammatory cytokines (SASP) by RT-qPCR; settings: 5 days after treatment
Description: The expression of inflammation-related genes such as inflammatory cytokine genes is increased in senescent cells. It is known that a phenomenon called SASP (senescence-associated secretory phenotype) is thereby induced. In order to study whether this phenomenon was induced in the A549 cells, the cells were recovered 5 days after CCC021-TPP treatment in the same manner as in Example 1, and RNA extraction, RNA reverse-transcription, cDNA synthesis, and RT-qPCR were performed in the same manner as in Example 1 to examine the expression of inflammatory cytokines (IL-1A, IL-1B, IL-6, and IL-8) in the A549 cells and the PC14 cells. The primers used for the amplification of each gene are shown below. For qPCR, amplification was performed under conditions involving a holding stage of 50° C. for 2 min→95° C. for 10 min followed by 40 cycles of a cycling stage each involving 95° C. for 15 sec→60° C. for 1 min using Applied Biosystems(R) 7500 real-time PCR system, and melt curve analysis after amplification was conducted at a melt curve stage of 95° C. for 15 sec→60° C. for 1 min→95° C. for 15 sec→60° C. for 15 sec to confirm reaction specificity from the absence of primer dimer by-products or the like in PCR products.

A549 cells [2] = test: MTT cell proliferation assay
Description: (§1) The A549 cells and the PC14 cells were inoculated at 5×10^3 cells/dish and 1×10^4 cells/dish, respectively, to 35 mm glass base dishes (IWAKI, Japan), cultured for 24 hours, and then treated with CCC021-TPP (final concentration: 20 μM). Further, 24 hours later, the culture solution was discarded, and a DMEM culture solution containing Mito Tracker(R) Red CMXRos (Life Technologies, USA) was added to attain 100 nM. 30 minutes later, the cells were washed twice with PBS, then fixed in 4% PFA for 30 minutes, then medium-replaced with PBS, preserved at 4° C., immunostained with the antibody by the method described in Example 1, and observed under confocal laser microscope SP8 (Leica, Germany). […] A549 and PC14 were each inoculated at 5×10^2 cells/well to 16 wells of a 96-well plate, cultured for 24 hours, and then treated with CCC021-TPP at 0, 1, 2, 5, 10, 25, and 50 μM each for 2 wells. 5 days later, the cells were reacted at room temperature for 2 hours using CytoSelect™ MTT Cell Proliferation Assay (Cosmo Bio Co., Ltd.), followed by the measurement of absorbance at 590 nm with SPECTRAFLUOR Plus (Tecan Group Ltd.) to conduct a rechallenge experiment of cell proliferation. […] 7 days later, as for change in the live cell numbers of the A549 cells and the PC14 cells, the live cell numbers were measured by trypan blue staining to experimentally examine cell survival rates.

PC14 cells [3] = test: MTT cell proliferation assay; settings: PC14, 5 days
Description: as §1

A549 cells [4] = test: Long-term cell proliferation, cell numbers counted for 8 days; settings: 20 μM
Description: (§2) The suppression of cell proliferation was further observed in the A549 and PC14 cells mentioned above for a long period. The observation was performed for 8 days under the culture conditions described above (both the mtDNA mutation cell line A549 and the PC14 cell line having no mutation were inoculated at 1×10^3 cells/well, cultured for 24 hours, and then treated with CCC021-TPP (final concentration: 20 μM)), and cell numbers were counted.

PC14 cells [5] = test: as above; settings: 20 μM
Description: as §2

A549 cells [6] = test: SA-β-Gal staining (senescence marker β-galactosidase); settings: 20 μM, 5 days
Description: In order to study whether cellular senescence was induced, the activity of a senescence marker β-galactosidase was determined with SPiDER-β-Gal (DOINDO) in the A549 cells and the PC14 cells after CCC021-TPP administration. 1000 cells were inoculated to a 35 mm dish and then cultured for 24 hours. Then, CCC021-TPP was administered (final concentration: 20 μM), and the cells were cultured for 5 days, washed twice with Hanks' balanced salt solution (HBSS) (pH 7.3), then treated with 500 μL of 4% paraformaldehyde at room temperature for 3 minutes, then washed twice with HBSS again, then treated with 500 μl of SPiDER-β-Gal Working Solution at 37° C. for 30 minutes, then washed once with HBSS, and observed under SP8 confocal microscope.

A549 cells [7] = test: Synthetic lethality: cell morphology with CCC021-TPP and ABT-263; settings: days 2 and 4
Description: Since the suppression of cell death in the cellular senescence of the A549 cells was presumably due to the BCL pathway, it was believed that the apoptosis of cells whose cellular senescence was evoked by CCC021-TPP could be induced by combined use with ABT-263 (Cayman Chemical Company) serving as a senolytic drug and a BCL pathway inhibitor. Thus, the possibility of inducing the cell death of senescent cells by CCC021-TPP treatment and combined use with the BCL2/BCL-XL inhibitor ABT-263 was observed under an optical microscope to observe change in cell morphology. Five hundred A549 cells were inoculated to a 96-well plate, cultured for 24 hours, and then observed over time under an optical microscope either without administration or after administration of 20 μM CCC021-TPP and 10 μM ABT-263 each used alone or used concurrently, and cell morphology was photographed on days 2 and 4.

A549 cells [8] = test: ROS production with MitoSOX Red; settings: 10 μM, 24 hours
Description: (§3) In order to confirm the production induction of reactive oxygen species (ROS) by mitophagy, the production of reactive oxygen species was fluorescently observed with MitoSOX Red (Invitrogen). 10^4 A549 or PC14 cells were inoculated, cultured for 10 hours, then treated with 10 μM CCC021-TPP for 24 hours, then washed with PBS, and treated at 37° C. for 10 minutes with MitoSOX Red dissolved in 13 μL of DMSO and diluted into 5 μM (final concentration) with PBS. The cells were washed with PBS and then observed under SP8 confocal microscope.

PC14 cells [9] = test: ROS production with MitoSOX Red; settings: 10 μM, 24 hours
Description: as §3

A549 cells [10] = test: Trypan blue assay of live cell numbers; settings: A549, 7 days later
Description: as §1

PC14 cells [11] = test: Trypan blue assay of live cell numbers; settings: PC14, 7 days later
Description: as §1

## CN(C)CCCNC(=O)CCNC(=O)c1cc(NC(=O)c2cc(NC(=O)CCNC(=O)c3nc(NC(=O)c4cc(NC(=O)c5cc(NC(=O)CCNC(=O)CCCC[P+](c6ccccc6)(c6ccccc6)c6ccccc6)cn5C)cn4C)cn3C)cn2C)cn1C [CCC021-TPP]
A549 cells [1]
  expression of IL-1A: significantly increased expression
  expression of IL-6: tendency to increase the expression
  expression of IL-8: significantly increased expression
A549 cells [2]; A549
  cell morphology after administration: senescent morphology
A549 cells [2]; Homo sapiens, 120 h, A549, 5 days
  IC50: 7.97 µM
PC14 cells [3]
  IC50 (MTT assay): incalculable
A549 cells [4]
  cell number / proliferation: significant suppression of proliferation
PC14 cells [5]
  cell number / proliferation: neither significant difference in cell number nor a cell proliferation suppressive effect was found
A549 cells [6]
  activity of senescence marker β-galactosidase: elevated activity of β-galactosidase was confirmed
A549 cells [7]; combined use of 20 μM CCC021-TPP and 10 μM ABT-263
  cells that underwent apoptosis (morphology): cells that evidently underwent apoptosis were already found
A549 cells [7]; each used alone: 20 μM CCC021-TPP, 10 μM ABT-263
  cells that underwent apoptosis (morphology): not detected
A549 cells [8]
  ROS production: excessive induction of ROS production in cytoplasm was observed
PC14 cells [9]
  ROS production: rarely observed
A549 cells [10]
  viability (trypan blue): no influence on the viability
PC14 cells [11]
  viability (trypan blue): no influence on the viability
